These results are taken from patent publication US5246830A, “Enzymatic process for the determination of β-lactam antibiotics” (Ucb Bioproducts, S.A., priority 1990, dated 1993).

In this assay the target is T1, enzyme R39 (soluble D-alanyl-D-alanine carboxypeptidase produced by Actinomadura R39) (Actinomadura sp. R39, UniProt P39045).
T1 construct: added to milk or serum samples
Kind of assay: Enzymatic determination of penicillin G in milk with 0.4 picomole enzyme R39 (Example 2). It is filed as biochemical. To be noted: for Coloration: 0.4 picomole enzyme R39, 10 min + 5 min. The method, then:
1.5 picomole of enzyme R39, dissolved in 10 μl of 0.5M Hepes buffer (pH=8.0) containing 0.5M NaCl and 0.25M MgCl2, and 20 μl of an aqueous solution containing 50 mg/ml of D-alanine are added to each sample (control sample+samples containing penicillin G). In the blank sample, enzyme R39 dissolved in Hepes buffer is replaced by 10 μl of 0.5M Hepes buffer (pH=8.0), containing 0.5M NaCl and 0.25M MgCl2 (Hepes=4-hydroxyethyl-1-piperazineethanesulfonic acid). The mixture is incubated at 47° C. for 4 minutes.
Next, 5 μl of an aqueous solution containing 5 mg/ml [(N-benzoyl-D-alanyl)thio]-acetic acid and 10 μl of a phosphate buffer solution (pH=8.0; KH2 PO4 +K2 HPO4) containing 2 mg/ml of 5,5'-dithiobis(2-nitrobenzoic) acid are added and the mixture is incubated at 47° C. for 1 minute.
The process is exactly the same as in Example 1 except that:
0.4 picomole of enzyme R39 (instead of 1.5 picomole) is added to the samples;
the first incubation lasts 10 minutes (instead of 4 minutes) and
the second incubation lasts 5 minutes (instead of 1 minute).

T1 sequence (P39045 50-515): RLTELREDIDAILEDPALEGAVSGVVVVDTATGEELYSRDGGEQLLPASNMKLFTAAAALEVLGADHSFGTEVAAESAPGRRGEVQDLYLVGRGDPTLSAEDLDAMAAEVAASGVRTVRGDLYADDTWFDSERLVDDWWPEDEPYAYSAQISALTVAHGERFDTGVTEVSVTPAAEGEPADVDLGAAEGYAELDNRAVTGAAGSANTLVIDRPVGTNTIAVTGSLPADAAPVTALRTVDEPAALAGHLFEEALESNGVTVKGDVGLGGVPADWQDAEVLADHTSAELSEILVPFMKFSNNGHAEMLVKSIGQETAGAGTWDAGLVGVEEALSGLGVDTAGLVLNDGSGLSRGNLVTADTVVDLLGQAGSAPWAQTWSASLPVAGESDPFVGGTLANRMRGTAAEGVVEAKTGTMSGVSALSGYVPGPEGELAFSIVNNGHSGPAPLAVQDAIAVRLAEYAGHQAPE

For the molecule `CC1(C)S[C@@H]2[C@H](NC(=O)Cc3ccccc3)C(=O)N2[C@H]1C(=O)O` [penicillin G, benzyl penicillin (penicillin G)], the “penicillin G concentration in milk detected by reference to a color chart” value (color chart, 15 minutes) was found to be 0.002 I.U./ml. Also, the Coloration result runs as follows: (penicillin G 0.001 I.U./ml in 50 μl milk) “intense yellow”; (penicillin G 0.002 I.U./ml in 50 μl milk) “medium yellow”; (penicillin G 0.003 I.U./ml in 50 μl milk) “pale yellow”; (penicillin G 0.004 I.U./ml in 50 μl milk) “white”; (penicillin G 0.005 I.U./ml in 50 μl milk) “white”; (penicillin G 0.008 I.U./ml in 50 μl milk) “white”. In addition, the Coloration entry (penicillin G 0.010 I.U./ml in 50 μl milk) is recorded as “white”.
